# Patent US9163007B2, “5-substituted indazoles as kinase inhibitors” (AbbVie Inc., priority 2007, dated 2015)
# Values joined by “and” are separate entries in the source; they are usually repeats but may differ in a detail not shown here. Equal values may be shown once.
# Experiments:
# rats [1] = experiment: Spinal nerve (L5/L6) ligation model of neuropathic pain (Chung); format: in vivo, rat; conditions: i.p. or p.o., doses ranging from 1-150 mg/kg
# Source text: Spinal Nerve (L5/L6) Ligation Model of Neuropathic Pain.
# As previously described in detail by Kim and Chung (Kim S. H.; Chung J. M. An experimental model for peripheral neuropathy produced by segmental spinal nerve ligation in the rat. Pain 1992, 50, 355-363), a 1.5 cm incision was made dorsal to the lumbosacral plexus. In anesthetized rats, the paraspinal muscles (left side) were separated from the spinous processes, the L5 and L6 spinal nerves isolated, and tightly ligated with 3-0 silk threads. Following hemostasis, the wound was sutured and coated with antibiotic ointment. The rats were allowed to recover and then placed in a cage with soft bedding for 14 days before behavioral testing for mechanical allodynia.
# [2] = tested on: Acidic mammalian chitinase (AMCase); experiment: Murine asthma model: AMCase measurement in BAL fluid; format: in vivo, mouse; conditions: 30 mg/kg group, p<0.01
# Description: (§1) Animals were sensitized to OVA on day 0 and 7 with an i.p. injection of 8 μg OVA in 2 mg alum. On days 14 and 16, animals received intra-nasal challenge of 0.3 μg OVA in 50 μl sterile PBS. Animals were dosed i.p. with a representative compound of formula (I), Example 179, (dissolved with 0.5% HMPC, 0.02% Tween 80 in water) twice per day at doses of 3, 10, and 30 mg/kg/dose beginning the afternoon of day 13. The final dose of compound was administered 30 minutes prior to measurement of airway hyperresponsiveness (AHR). Dexamethasone was administered orally once a day on days 13-17 at a dose of 3 mg/kg. All endpoints were analyzed on day 17, 24 hours after the second OVA challenge. AHR was assessed using unconscious restrained whole body plethysmography. Briefly, a surgical plane of anesthesia was induced with an i.p. injection of ketamine and xylazine. A tracheal canula was surgically inserted between the third and fourth tracheal rings. […] Pressure in the lung and flow within the plethysmograph were measured using transducers, and lung resistance was calculated as pressure/flow using Biosystem Xa software. Baseline resistance as well as resistance following challenge with methacholine (3, 10 or 30 mg/mL) that was delivered with an inline ultrasonic-nebulizer were measured. […] Lavage fluid was analyzed for IL-13, AMCase, Muc5ac and cellular infiltrates. […]
# rats [3] = experiment: Sciatic nerve ligation model of neuropathic pain (Bennett); format: in vivo, rat; conditions: i.p. or p.o., doses ranging from 1-150 mg/kg
# Source text: Sciatic Nerve Ligation Model of Neuropathic Pain.
# As previously described in detail by Bennett and Xie (Bennett G. J.; Xie Y-K. A peripheral mononeuropathy in rat that produces disorders of pain sensation like those seen in man. Pain 1988, 33, 87-107), in anesthetized rats, a 1.5 cm incision was made 0.5 cm below the pelvis and the biceps femoris and the gluteous superficialis (right side) were separated. The sciatic nerve was exposed, isolated, and four loose ligatures (5-0 chromic catgut) with 1 mm spacing were placed around it. The rats were allowed to recover and then placed in a cage with soft bedding for 14 days before behavioral testing for mechanical allodynia as described above. In addition, animals were also tested for cold allodynia by dipping their hind paw in a cold-water bath (4.5° C.) and determining the paw withdrawal latency.
# Balb/c mice = experiment: Murine model of acute asthma: airway hyperresponsiveness (lung resistance); format: in vivo, mouse; conditions: OVA-challenged mice, i.p. twice per day, tested 3, 10, 30 mg/kg; printed 'doses ranging between 1 and 100 mg/kg'; OVA 6.90, PBS 4.65
# Source text: Murine Asthma Model of Acute Asthma
# Female Balb/c mice were purchased from Taconic and housed at Abbott Bioresearch Center. Animals were utilized at 8-12 weeks of age. All protocols were approved by the Institutional Animal Care and Use Committee (IACUC). Dexamethasone (Dex), and ovalbumin (OVA) were purchased from Sigma. Endotoxin was removed from ovalbumin using DetoxiGel (Pierce) according to manufacturer's protocol and the final material contained less than 0.1 EU/mg protein. Alum Imject was purchased from Pierce.
# Animals were sensitized to OVA on day 0 and 7 with an i.p. injection of 8 μg OVA in 2 mg alum. On days 14 and 16, animals received intra-nasal challenge of 0.3 μg OVA in 50 μl sterile PBS. […] All endpoints were analyzed on day 17, 24 hours after the second OVA challenge. AHR was assessed using unconscious restrained whole body plethysmography. […] Pressure in the lung and flow within the plethysmograph were measured using transducers, and lung resistance was calculated as pressure/flow using Biosystem Xa software. Baseline resistance as well as resistance following challenge with methacholine (3, 10 or 30 mg/mL) that was delivered with an inline ultrasonic-nebulizer were measured. […] Lavage fluid was analyzed for IL-13, AMCase, Muc5ac and cellular infiltrates. […]
# IL-13 = experiment: Murine asthma model: IL-13 measurement in bronchoalveolar lavage fluid; format: in vivo, mouse
# Description: Animals were sensitized to OVA on day 0 and 7 with an i.p. injection of 8 μg OVA in 2 mg alum. On days 14 and 16, animals received intra-nasal challenge of 0.3 μg OVA in 50 μl sterile PBS. Animals were dosed i.p. with a representative compound of formula (I), Example 179, (dissolved with 0.5% HMPC, 0.02% Tween 80 in water) twice per day at doses of 3, 10, and 30 mg/kg/dose beginning the afternoon of day 13. The final dose of compound was administered 30 minutes prior to measurement of airway hyperresponsiveness (AHR). Dexamethasone was administered orally once a day on days 13-17 at a dose of 3 mg/kg. All endpoints were analyzed on day 17, 24 hours after the second OVA challenge. AHR was assessed using unconscious restrained whole body plethysmography. Briefly, a surgical plane of anesthesia was induced with an i.p. injection of ketamine and xylazine. A tracheal canula was surgically inserted between the third and fourth tracheal rings. Spontaneous breathing was prevented by an intravenous (i.v.) jugular vein injection of pancuronium bromide. Animals were placed in a whole body plethysmograph (Buxco) and mechanically ventilated with 0.2 mL room air at 150 breaths per minute with a volume-controlled ventilator (Harvard Apparatus). Pressure in the lung and flow within the plethysmograph were measured using transducers, and lung resistance was calculated as pressure/flow using Biosystem Xa software. Baseline resistance as well as resistance following challenge with methacholine (3, 10 or 30 mg/mL) that was delivered with an inline ultrasonic-nebulizer were measured. Upon completion of pulmonary function testing, the lungs were lavaged 4 times with 0.5 mL sterile PBS. Lavage fluid was analyzed for IL-13, AMCase, Muc5ac and cellular infiltrates. The efficacy of the test compound was tested at doses of 3, 10 and 30 mg/kg b.i.d. (6, 20, 60 mg/kg/day). […]
# IL-13 concentrations in the bronchoalveolar lavage fluid (BAL) were measured by ELISA (R & D Systems) according to manufacturer's instructions.
# MUC5AC = experiment: Murine asthma model: MUC5AC measurement in BAL; format: in vivo, mouse; set-up: dose or concentration left out as unconfirmed
# Description: as §1, with “Animals were dosed i.p. with a representative compound of formula (I), Example 179, (dissolved with 0.5% HMPC, 0.02% Tween 80 in water) twice per day at doses of 3, 10, and 30 mg/kg/dose beginning the afternoon of day 13.” left out
# Concentrations of the mucin gene MUC5AC were quantitated by ELISA format. […] The reaction was stopped using 1M H2SO4 and then read in a spectrophotometer at OD 450 nm.
smiles,measurement,setting,value
"O=C(N[C@H](CCO)c1ccccc1)c1cc(-c2ccc3[nH]ncc3c2)on1 [Example 179, N-[(1R)-3-hydroxy-1-phenylpropyl]-5-(1H-indazol-5-yl)isoxazole-3-carboxamide]",inhibition of tactile allodynia,rats [1],greater than 30%
same,inhibition of AMCase activity induction in BAL fluid,[2],45%
same,inhibition of tactile allodynia,rats [3],greater than 30%
same,methacholine-induced airways resistance,Balb/c mice,4.55 cm H2O/mL/sec and 4.77 cm H2O/mL/sec
same,inhibition of IL-13 induction in BAL fluid,IL-13; 3 mg/kg dose group,no significant inhibition
same,inhibition of IL-13 induction in BAL fluid,IL-13; 10 mg/kg dose group,no significant inhibition
same,inhibition of IL-13 induction in BAL fluid,"IL-13; 30 mg/kg dose, p<0.05",60%
same,reduction of MUC5AC levels,MUC5AC,35%
